Experiments:
Htr3 [1] = molecular target: T1, Htr3 (Mus musculus, UniProt P23979); test: Real-time PCR of thermogenic genes in IBAs; format: cell-based; settings: 2 h after Htr3 agonist treatment
T1 construct: we explored the direct actions of Htr3 on BAT using immortalized brown adipocytes (IBAs); endogenous in cells; host or cells: differentiated immortalized brown adipocytes (IBAs)
T1 sequence (P23979 24-489): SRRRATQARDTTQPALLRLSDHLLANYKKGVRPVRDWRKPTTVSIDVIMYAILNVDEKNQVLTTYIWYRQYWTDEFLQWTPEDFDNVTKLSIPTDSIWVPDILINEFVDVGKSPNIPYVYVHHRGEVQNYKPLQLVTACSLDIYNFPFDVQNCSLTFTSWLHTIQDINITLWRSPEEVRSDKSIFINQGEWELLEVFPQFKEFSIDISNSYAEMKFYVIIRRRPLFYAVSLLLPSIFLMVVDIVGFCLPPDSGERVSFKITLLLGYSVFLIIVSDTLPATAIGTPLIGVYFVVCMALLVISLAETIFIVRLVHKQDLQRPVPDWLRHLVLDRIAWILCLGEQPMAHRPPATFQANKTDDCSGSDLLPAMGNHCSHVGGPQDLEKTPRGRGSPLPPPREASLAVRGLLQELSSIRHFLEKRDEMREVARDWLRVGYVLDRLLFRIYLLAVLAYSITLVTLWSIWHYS
T1 sequence (Q9JHJ5 22-437 partner): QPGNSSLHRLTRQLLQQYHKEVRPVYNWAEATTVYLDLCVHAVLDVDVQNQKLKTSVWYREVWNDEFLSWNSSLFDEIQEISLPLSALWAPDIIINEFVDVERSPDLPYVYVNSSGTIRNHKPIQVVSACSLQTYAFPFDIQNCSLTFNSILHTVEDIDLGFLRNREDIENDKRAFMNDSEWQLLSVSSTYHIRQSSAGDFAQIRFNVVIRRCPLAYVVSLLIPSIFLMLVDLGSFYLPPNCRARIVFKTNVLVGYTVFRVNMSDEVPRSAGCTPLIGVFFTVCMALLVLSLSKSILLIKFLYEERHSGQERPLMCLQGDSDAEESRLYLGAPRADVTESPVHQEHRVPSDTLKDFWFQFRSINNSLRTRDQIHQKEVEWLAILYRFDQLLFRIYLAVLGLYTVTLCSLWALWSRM
Experimental: (§1) IBAs were cultured in DMEM supplemented with 10% FBS and P/S in a humidified atmosphere of 5% CO2 at 37° C.^32. After reaching 95% confluence, the cells were induced to differentiate using DMEM with 10% FBS, 0.5 μg/mL insulin, 1 nM T3, 0.125 mM indomethacin, 2 μg/mL dexamethasone, 0.5 μM IBMX and P/S (day 0). After two days, the medium was replaced with DMEM supplemented with 10% FBS, 0.5 μg/mL insulin, 1 nM T3 and P/S (day 2), and it was changed every two days from days 4 to 8. We confirmed that these cell lines are free from Mycoplasma infection.
Total RNA was extracted from the mouse tissues or cell lines using TRIzol reagent (Invitrogen) according to the manufacturer's protocol. After TURBO DNase (Invitrogen) treatment, 2 μg of total RNA was used to generate complementary DNA with Superscript III reverse transcriptase (Invitrogen). To analyze gene expression, real-time PCR was performed with a ViiA 7 Real-Time PCR system (Applied Biosystems) and the Power SYBR Green PCR master mix (Applied Biosystems). Relative quantification was based on the ddCt method, and ActB was used as an endogenous control (internal control).

Htr3 [2] = molecular target: T1, Htr3; test: cAMP assay (competitive ELISA) in immortalized brown adipocytes; format: cell-based; settings: IBAs, 1 uM ondansetron or 100 nM m-CPBG, 15 min
Experimental: as §1
Differentiated IBAs were treated with 1 uM ondansetron or 100 nM m-CPBG or 1 uM CL-316243 for 15 min. 1 uM […] was used as a positive control. The cAMP competitive ELISA (Promega) was performed according to the manufacturer's instruction. Briefly, cAMP was extracted by adding 0.1 M HCl with 0.5% triton X-100 to the cells. After centrifugation at 600 g for 10 min, the supernatant was used for the determination of cAMP levels by competitive cAMP ELISA.

Htr3 [3] = molecular target: T1, Htr3; test: Western blot for phosphorylation of PKA pathway components in IBAs; format: cell-based; settings: IBAs, Htr3 agonist treatment
Experimental: as §1
Whole-cell lysates were extracted by incubating cells in RIPA buffer (25 mM Tris-HCl pH 7.6, 150 mM NaCl, 1% NP-40, 1% sodium deoxycholate, 0.1% SDS) plus protease inhibitors (Roche). Supernatant was collected following a brief centrifuge, and protein concentrations in the supernatant were determined using the BCA Protein Assay Kit (Thermo Scientific, Rockford, Ill., USA). The cell lysates were then mixed with equal volumes of 2× Laemmli buffer (4% SDS, 20% glycerol, 10% 2-mercaptoethanol, 0.01% bromophenol blue, and 120 mM Tris-HCl, pH 6.8) and boiled for 5 min at 95° C. Then, the protein samples were separated by SDS-PAGE and transferred to a PVDF membrane (Millipore). […]

[4] = Glucose tolerance test and insulin tolerance test; format: in vivo, mice; settings: LP-533401 30 mg/kg orally, 10 weeks, HFD-fed mice vs HFD-fed control
Experimental: For the glucose tolerance tests, the mice were administered 2 g/kg D-glucose in PBS after overnight fasting. For the insulin tolerance tests, the mice were intraperitoneally injected with insulin (0.75 U/kg) after being fasted for 4 h. The blood glucose levels in blood samples obtained from tail veins 0, 15, 30, 45, 60, 90 and 120 min after injection were measured using a Gluco DR Plus glucometer (Allmedicus).

[5] = High-fat-diet-induced obesity in mice: growth curves, body weight and eWAT mass; format: in vivo; settings: LP-533401 30 mg/kg orally daily, 10 weeks, SCD or HFD
Source text: The generation of Tph^flox/flox mice, Adipoq-cre mice, and aP2-CreERT2 mice has previously been reported^17,30,31. C57BL/6J mice, Htr3a-targeted KO mice (B6.129X1-Htr3a^tm1jul/J, Htr3a KO) and leptin-deficient ob/ob mice (B6.V-Lep^ob/J) were purchased from the Jackson Laboratory (Bar Harbor, Me., USA). To create the adipose tissue-specific Tph1 KO mice, Tph1^flox/flox mice were crossed with Adipoq-Cre mice (Tph1 FKO mice) and aP2-CreERT2 mice (Tph1 AFKO mice). The mice were housed in climate-controlled, specific pathogen-free (SPF) barrier facilities under a 12-h light-dark cycle, and chow and water were provided ad libitum. The Institutional Animal Care and Use Committee at the Korea Advanced Institute of Science and Technology approved the experimental protocols for this study. Htr3a KO mice and Tph1^flox/flox mice were backcrossed with C57BL/6J mice for more than 10 generations. Cre-recombination of 6-week-old Tph1 AFKO mice was induced by intraperitoneal (IP) injection of 5 doses of 2 mg of tamoxifen (Sigma) for 1 week. We fed male mice (aged 8˜10 weeks) either on SCD (standard chow diet; 12% fat calories, Purina Laboratory Rodent Diets 38057) or HFD (60% fat calories, Research Diets D12492). PBS or 300 mg/kg PCPA was administered as a daily intraperitoneal injection. LP-533401 was dissolved in PEG-400 and 5% dextrose (40:60 ratio). Vehicle or 30 mg/kg LP-533401 was administered daily with a feeding needle. We randomly divided C57BL/6J mice into 2-4 groups. For transgenic mice, we compared data between KO mice and their WT littermates. No blinding was done.

[6] = reference 18; cited from earlier work

| Structure (SMILES) | Ucp1 mRNA level (Htr3 [1]) | cAMP level in the absence of β3AR agonist (Htr3 [2]) | phosphorylation of HSL and PKA substrate (Htr3 [3]) | glucose tolerance (IPGTT) [4] | anti-obesity effects (growth curves) [5] | crossing of the blood-brain barrier [6] |
| --- | --- | --- | --- | --- | --- | --- |
| N=C(N)NC(=N)Nc1cccc(Cl)c1 [m-CPBG, 1-(m-chlorophenyl)-biguanide] | decreased | did not affect cAMP levels | decreased | – | – | – |
| Nc1nc(OC(c2ccc(-c3cccc(F)c3)cc2)C(F)(F)F)cc(-c2ccc(C[C@H](N)C(=O)O)cc2)n1 (stereo partly drawn) [LP-533401] | – | – | – | improved glucose tolerance | also observed | cannot cross the blood-brain barrier |

Source: US20160228452A1, “TREATMENT OF METABOLIC DISEASES BY INHIBTION OF HTR2A OR HTR3” (Korea Advanced Institute of Science and Technology, priority 2014, published 2016)
